Assay results as given in patent US6011006A, “Method of treating hot flushes with hexapeptides” (Novo Nordisk A/S, priority 1998, dated 2000).
Where a SMILES comes first, the peptide text is derived from it.

Test system: depressor response to spinal cord stimulation
Assay: Inhibition of depressor response to spinal cord stimulation in the pithed rat
Format: in vivo, Sprague Dawley rats
Settings: for mean reduction (% of maximal depressor response): pithed male Sprague Dawley rat, intravenous, given prior to spinal cord stimulation; for effect when repeated a second time after a second non-antagonized depressor response: all animals examined
Method: Male Sprague Dawley rats (300±25 g) were anesthetized with pentobarbital sodium (50 mg/kg i.p.) and polyethylene catheters were positioned in both femoral veins for the intravenous administration of drugs, such as nociceptin and analogues, and into the left femoral artery in order to measure arterial blood pressure and heart rate.
The trachea was cannulated with polyethylene tubing and the rat was pithed, ventilated and drug treated as described by Nuki Y. et al. (Effects of Dorsal Rhizotomy on Depressor Response to Spinal Cord Stimulation Mediated by Endogenous Calcitonin Gene-related Peptide in the Pithed Rat. J. Neurosurg. 1993; 79: 899-904).
Prior administration of nociceptin and related analogs inhibited the depressor response to spinal cord stimulation accordingly: […]

Compound | mean reduction (% of maximal depressor response) (dose 0.1 mg/kg) | mean reduction (% of maximal depressor response) (dose 0.3 mg/kg) | effect when repeated a second time after a second non-antagonized depressor response (pithed rat) | dose-response of inhibition of depressor response (pithed rat, doses 0.1 and 0.3 mg/kg)
CC(C)C[C@H](NC(=O)[C@H](CCCCN)NC(=O)[C@H](CCCN=C(N)N)NC(=O)[C@H](C)NC(=O)[C@H](CO)NC(=O)[C@H](CCCCN)NC(=O)[C@H](CCCN=C(N)N)NC(=O)[C@H](C)NC(=O)CNC(=O)[C@@H](NC(=O)[C@H](Cc1ccccc1)NC(=O)CNC(=O)CNC(=O)[C@@H](N)Cc1ccccc1)[C@@H](C)O)C(=O)N[C@@H](C)C(=O)N[C@@H](CC(N)=O)C(=O)N[C@@H](CCC(N)=O)C(=O)O [nociceptin, reference compound] | 29 ± 9 % of maximal depressor respons | 23 ± 6 % of maximal depressor respons | seen when repeated a second time | –
CC(=O)N[C@@H](CCCNC(=N)N)C(=O)N[C@@H](Cc1ccc(O)cc1)C(=O)N[C@@H](Cc1ccc(O)cc1)C(=O)N[C@@H](CCCNC(=N)N)C(=O)N[C@@H](Cc1c[nH]c2ccccc12)C(=O)N[C@@H](CCCCN)C(N)=O [Ac--Arg--Tyr--Tyr--Arg--Trp--Lys--NH2, Ac-Arg-Tyr-Tyr-Arg-Trp-Lys-NH2] (Ac-RYYRWK-NH2) | 54 ± 12 % of maximal depressor respons | 32 ± 7 % of maximal depressor respons | seen when repeated a second time | clear dose-response
